This note sets out measurements from PMC4632086, “Effects and possible mechanisms of action of acacetin on the behavior and eye morphology of Drosophila models of Alzheimer’s disease” (Scientific Reports, 2015).

Format in all cases: in vivo, Drosophila melanogaster
For data set [1], the system named is elav < APP/BACE-1 flies. In words: Fly eclosion rate (pupation and emergence). As to conditions: 100, 300, and 500 μM. As for the experimental part:
The pupation and emergence rates were determined according to the method of Tamura et al.[78]. The elav < APP/BACE-1 flies were cultured from the egg stage in vials, as stated previously. Groups of 50 third instar larvae climbing on the wall were transferred into vials containing fresh media. The treated and control (0.1% DMSO only) flies were grown under the same conditions as those used for fly maintenance. The numbers of pupae and adults were determined. All treatments were repeated four times using 50 larvae per replicate.

Data set [2] deals with elav < APP/BACE-1 flies. In words: Feeding assay (Acid red intake). As to conditions: 100, 300, and 500 μM; males; 2 h feeding. As to the method: The adult feeding assay was performed according to the methods of Wang et al.[33] and Bahadorani et al.[79]. Groups of 15 newly emerged male elav < APP/BACE-1 flies were cultured on standard media for 3 days and then starved for 20 h in vials containing three layers of Whatman no. 2 filter paper (Whatman, Maidstone, UK) soaked in DW. The flies were then transferred into vials containing media (with 0.2% Acid red) supplemented with acacetin (100, 300, and 500 μM) in 0.1% DMSO. The controls were fed with media supplemented with 0.2% Acid red and 0.1% DMSO. After 2 h of feeding, the abdomens were isolated and homogenized in 1 mL DW. After centrifugation (5000 rpm, 25 °C, 5 min), the optical density (OD) of the supernatant was measured at 505 nm, because this OD value is considered to index the amount of food intake by flies, as described by Min and Tatar[80]. All treatments were repeated three times using 15 males per replicate.

Another data set relates to human BACE-1. In words: Western blot, BACE-1 protein in heads of elav < APP/BACE-1 flies. The conditions noted are these: 20-day-old males. As to the method:
(§1) The elav < APP/BACE-1 flies were cultured from the egg stage, as described previously. The lysates were obtained from the heads of 50 male flies (20 days old) by placing the heads in 100 μL RIPA buffer (pH 8.0) containing a 1% protease inhibitor cocktail. The controls received 0.1% DMSO. The lysates were centrifuged at 14,000 rpm for 30 min at 4 °C. The protein content of the supernatant was determined using a Bradford Protein Assay kit (Sigma-Aldrich) and BSA was used as the standard. The total proteins (30 μg/sample for APP and BACE-1 detection; 70 μg/sample for Aβ detection) were mixed with an equal volume of 5× sample buffer[81] containing 40 mM of DL-dithiothreitol, boiled for 10 min, and then loaded onto 8, 10, and 12% sodium dodecyl sulfate-polyacrylamide gels using a Mini-Protean 3 electrophoresis cell (Bio-Rad, Hercules, CA, USA) for APP, APP-CTF (APP-αCTF and APP-βCTF) and AICD, BACE-1, and Aβ detection, respectively. After electrophoresis at 110 V in 2 h, the proteins from the gels were transferred onto a polyvinyl difluoride membrane (Pall Corporation, Pensacola, FL, USA) using an electroblotting apparatus. The membrane was then blocked with 5% skim milk (BD Difco, Flanklin Lakes, NJ, USA) in PBS containing 0.1% (v/v) Tween-20 (0.1% PBS-T) at room temperature for 1 h, and further incubated overnight at 4 °C with a 1:4,000 dilution of an anti-APP C-terminal antibody to detect the cleaved APP product, a 1:1,000 dilution of anti-BACE-1, and a 1:1,000 dilution of anti-amyloid (4G8). After washing with 0.1% PBS-T three times at 10 min intervals, the membranes were further incubated for 2 h with a goat anti-rabbit IgG H&L (HRP) secondary antibody at a1:4,000 dilution for APP and BACE-1 and a goat anti-mouse lgG-HRP at a 1:5,000 dilution for β-amyloid. […] The differences in protein expression were quantified using a Molecular Imager Gel Doc XR system (Bio-Rad, Hercules, CA, USA) and normalized to actin expression on the same membrane. The results are expressed as the means ± SEs of duplicate samples from three independent experiments.
On the technique in general: Immunoblotting shows a protein as a band on a membrane.

For data set [3], the system named is APP intracellular domain (AICD). Nature of the data set: Western blot, AICD in heads of elav < APP/BACE-1 flies. The conditions noted are these: 20-day-old males. As to the method:
as §1

The test system of the next data set is GMR < APP/BACE-1 flies. Nature of the data set: Light and scanning electron microscopy of adult compound eyes. As for the experimental part:
GMR < APP/BACE-1 flies were cultured from the egg stage in polystyrene vials containing standard media supplemented with acacetin (100, 300, and 500 μM) in 0.1% DMSO, based on the preliminary test results. The controls received 0.1% DMSO only. […] The morphology of the compound eyes was observed using an EZ4 HD stereo microscope (×35) equipped with an Integrated 3.0 Mega-Pixel CMOS camera (Leica, Hicksville, NY, USA). The flies with aberrant eye phenotypes were collected, and the number of the flies with dark deposits in the eye was counted.
For SEM, the anesthetized male flies (30 days old) were attached to a copper mount using silver paint as a conducting adhesive, as described previously. They were then put directly into the viewing chamber of an SEM without prior coating, as described by Hartman and Hayes[76]. The external surface morphology of the compound eye was visualized using a Supra 55VP field-emission scanning electron microscope (Carl Zeiss, Jena, Germany) operated at 15 kV.

For data set [4], the system named is elav < APP/BACE-1 flies. Nature of the data set: Lifespan assay. As to conditions: males. As for the experimental part:
Groups of 20 newly emerged male elav < APP/BACE-1 flies, cultured in vials as stated previously, were separately transferred to vials containing media supplemented with acacetin (100, 300, and 500 μM) every 4 days. The controls received 0.1% DMSO. The median life time (T1/2) was defined as the time when the survivor function equaled 50%, because median survivorship is a more reliable index than mean survival time, as described by Chakraborty and colleagues. All treatments were repeated 10 times using 20 males per replicate.

Turning to `COc1ccc(-c2cc(=O)c3c(O)cc(O)cc3o2)cc1` [acacetin], in the data set with elav < APP/BACE-1 flies [1], the pupation rate result is reported as “nearly normal pupation rates”. The emergence of flies with elav < APP/BACE-1 flies [1] (vehicle 76%, elav-Gal4/+ 99%, not significant vs vehicle) was 82–86%. Moreover, the “feeding (food intake)” value in the data set on elav < APP/BACE-1 flies [2] is “did not significantly affect feeding”. Moreover, the “BACE-1 protein levels, % of the control levels” value with human BACE-1 (100 μM) is given as 81%; in the data set with human BACE-1 (300 μM), 75%; in the data set with human BACE-1 (500 μM), 74%. Besides, the “AICD levels, % of the control levels” value in data set [3] (100 μM) worked out at 68%; in data set [3] (300 μM), 27%; in data set [3] (500 μM), 37%. The “ratio of female flies with dark deposits in the eyes” value in the data set with GMR < APP/BACE-1 flies (100, 300, and 500 μM in media, 1-day-old females, vehicle DMSO […]) is given as 6.3–8.0%. Also, the “ratio of male flies with dark deposits in the eyes” value with GMR < APP/BACE-1 flies (100, 300, and 500 μM in media, 1-day-old males, vehicle DMSO 18.7%) is 5.0–7.0%. In the data set with GMR < APP/BACE-1 flies (100, 300, and 500 μM, light microscopy, vs vehicle-fed flies), the “ommatidial fusion in the central side of the eyes” value is reported as “significantly suppressed ommatidial fusion”. Besides, the “ommatidial fusion at the edges of the eyes” value in the data set on GMR < APP/BACE-1 flies (300 and 500 μM, light microscopy) was “ameliorated ommatidial fusion”. Further, the “median life time (T1/2)” value is recorded as 31 days in the data set with elav < APP/BACE-1 flies [4] (100 μM, vehicle 26 days, elav-Gal4/+ 36 days); “did not significantly extend the T1/2” in the data set with elav < APP/BACE-1 flies [4] (300 and 500 μM). For the same compound, the lifespan result in the data set on elav < APP/BACE-1 flies [4] (100, 300, and 500 μM, vs vehicle-fed transgenic flies) is “did not significantly increase the lifespan”.
